According to article PMC7395068, “The evolution of strategies to minimise the risk of human drug-induced liver injury (DILI) in drug discovery and development” (Archives of Toxicology, 2020):
Read-outs that look alike come from different tables or passages of the source.

What was measured:
[1] = system: THLE or HepG2 cells, isolated mitochondria, BSEP; details: cited from earlier work
[2] = Phase 3 clinical trials; ref Aleo et al. 2019; cited from earlier work
[3] = system: HepG2; details: cited from earlier work
[4] = system: PHH; details: cited from earlier work
[5] = cited from earlier work
[6] = system: HepG2 cells; details: In vitro Assay; ref O'Brien 2006; cited from earlier work
[7] = system: HepG2 cells; details: In vitro Assay; ref Tolosa 2012; cited from earlier work
[8] = system: HepaRG cells; details: cited from earlier work
[9] = system: isolated mouse liver mitochondria; details: In vitro Assay; ref Porceddu 2012; cited from earlier work
[10] = system: HepG2; set-up: method as in Albrecht 2019; details: In vitro Assay; ref Albrecht 2019; cited from earlier work
[11] = system: rBsep; details: In vitro Assay; ref Dawson 2012; cited from earlier work
[12] = system: PHH spheroids; details: cited from earlier work
[13] = system: PHH; details: cited from earlier work; remark: listed apart in the source
[14] = system: HepaRG spheroids; experiment: Combined HCI (HCS) and cellular ATP 3D assay in HepaRG spheroids; details: for AC50 / minimal effective concentration: Homo sapiens
[15] = system: primary human hepatocytes, NIH3T3 fibroblasts, BSEP, CYP3A4; details: cited from earlier work
[16] = system: human hepatocytes; details: cited from earlier work
[17] = system: hLiMTs; experiment: Combined HCI (HCS) and cellular ATP 3D assay in hLiMTs; details: for AC50 / minimal effective concentration: Homo sapiens
[18] = read-out: Human plasma Cmax; total plasma Cmax.tot, median of 9 literature references; cited from earlier work
[19] = in vivo; cited from earlier work
[20] = Plasma free fraction (fu) and unbound Cmax (Cmax,u); type: in vitro ADME, human; details: unbound plasma Cmax
[21] = plasma free fraction; cited from earlier work
[22] = system: hLiMTs; details: cited from earlier work
[23] = In vitro Assay, ref Albrecht 2019
[24] = Microtissue model structural based (HCI), combined HCS and ATP, MEC < 25 × Cmax.tot cut-off
[25] = In vitro Assay, ref Schadt 2015

SMILES: Cc1cc(OCCCS(C)(=O)=O)cc(C)c1-c1cccc(COc2ccc3c(c2)OC[C@H]3CC(=O)O)c1 [TAK-875, reference compound]
- Partition HRM hybrid scoring model classification ([1]; ref Aleo et al. 2019): DILI concern
- clinical liver finding [2]: liver injury

SMILES: OC[C@H]1OC(O)[C@H](O)[C@@H](O)[C@@H]1O (stereo partly shown) [glucose, reference compound]
- Cytotoxicity HepG2 48 hrs [3, 23]: +VE
- Cytotoxicity PHH 48 hrs [4, 23]: +VE

SMILES: COC(=O)c1ccc(O)cc1 [methylparaben]
- Cytotoxicity HepG2 48 hrs [3]: -VE
- In vivo DILI ([5]; in vivo): -VE
- Cytotoxicity PHH 48 hrs [4]: -VE

SMILES: CO[C@H]1/C=C/O[C@@]2(C)Oc3c(C)c(O)c4c(O)c(c(/C=N/N5CCN(C)CC5)c(O)c4c3C2=O)NC(=O)/C(C)=C\C=C\[C@H](C)[C@H](O)[C@@H](C)[C@@H](O)[C@@H](C)[C@H](OC(C)=O)[C@@H]1C [rifampicin, reference compound]
- Structural based (HCI) [6]: +VE
- Structural based (HCI) [7]: +VE
- DILI identification by high-throughput transcriptomics ([8]; HepaRG cells, BMCs in relation to 10 × human Cmax.tot, ref National Toxicology Program): identified
- in vitro data EC2<=1x Cmax [9]: +VE
- in vitro data EC20<=2uM [9]: -VE
- In vivo DILI ([5]; ref Albrecht 2019): +VE
- In vivo DILI ([5]; ref Dawson 2012): +VE
- In vivo DILI ([5]; ref Gustafsson 2014): +VE
- In vivo DILI ([5]; ref O'Brien 2006): +VE
- In vivo DILI ([5]; ref Porceddu 2012): +VE
- In vivo DILI ([5]; ref Schadt 2015): +VE
- In vivo DILI ([5]; ref Tolosa 2012): +VE
- Cytotoxicity HepG2 48 hrs [10]: +VE
- Inhibition of rBsep cutoff<1& cmax u>.2 [11]: +VE
- Inhibition of rBsep cutoff<3 [11]: +VE
- Cytotoxicity PHH 48 hrs [4, 23]: +VE
- DILI in vitro assay prediction, Vorrink (2018) ([12]; PHH spheroids, ATP, 14 days, IC20 < 20 × Cmax.tot, ref Vorrink et al. 2018): identified

SMILES: Oc1cc(Cl)ccc1Oc1ccc(Cl)cc1Cl [triclosan]
- Cytotoxicity HepG2 48 hrs [3, 23]: +VE
- In vivo DILI ([5]; ref Albrecht 2019): -VE
- Cytotoxicity PHH 48 hrs [4, 23]: -VE

SMILES: N[C@@H]1[C@H]2CN(c3nc4c(cc3F)c(=O)c(C(=O)O)cn4-c3ccc(F)cc3F)C[C@@H]12 [trovafloxacin]
- PHH ATP <100uM [13]: -VE
- PHH/100uM, Proctor (2017) [13]: -VE
- HepaRG <25x Avg Cmax ATP ([14]; HepaRG, ATP endpoint, cut-off <25x Avg Cmax): +ve
- HepaRG <100x Avg Cmaxu ATP ([14]; HepaRG, ATP endpoint, cut-off <100x Avg Cmaxu): +ve (<100x Avg Cmaxu)
- HepaRG <25x Avg Cmax HCS ([14]; HepaRG, HCS endpoints, cut-off <25x Avg Cmax): +ve
- HepaRG <100x Avg Cmaxu HCS ([14]; HepaRG, HCS endpoints, cut-off <100x Avg Cmaxu): +ve (<100x Avg Cmaxu)
- HepaRG <25x Avg Cmax All ([14]; HepaRG, all endpoints (ATP and HCS), cut-off <25x Avg Cmax): +ve
- HepaRG Cmax max All ([14]; HepaRG, all endpoints, Cmax max used): +ve
- HepaRG Cmax min All ([14]; HepaRG, all endpoints, Cmax min used): +ve
- HepaRG <10 uM All ([14]; HepaRG, all endpoints, cut-off <10 uM): +ve (<10 uM)
- HepaRG <100x Avg Cmaxu All ([14]; HepaRG, all endpoints, cut-off <100x Avg Cmaxu): +ve (<100x Avg Cmaxu)
- AC50 ([14]; HepaRG, read-out: ATP endpoint AC50): 12.9 µM
- minimal effective concentration ([14]; HepaRG, read-out: ATP endpoint MEC): 7.27 µM
- AC50 ([14]; HepaRG, read-out: HCS endpoint AC50): 24.9 µM
- minimal effective concentration ([14]; HepaRG, read-out: HCS endpoint MEC): 17.5 µM
- DILI prediction HepaRG spheroids (HCS-MEC) [14, 24]: +VE (MEC < 25 × Cmax.tot cut-off)
- Rule of Two hybrid HRM Score ≥3, Aleo (2019) [1]: +VE (key: +VE: Rule of Two hybrid HRM Score ≥3)
- Rule of Two hybrid HRM Score ≥8, Aleo (2019) [1]: -VE
- DILI identification by high-throughput transcriptomics [8]: identified
- DILI in vitro assay prediction, Schadt (2015) ([15]; BSEP & Metabolism based, ref Schadt et al. 2015): -VE
- Cellular toxicity (3T3 cells) [15, 25]: -VE
- Combined Assay [15, 25]: -VE
- GSH adduct HML [15, 25]: -VE
- Hepatocyte cellular toxicity [15, 25]: -VE
- MitoTox 3T3 [15, 25]: -VE
- TDI CYP3A4 [15, 25]: -VE
- hBSEP inhibition [15, 25]: -VE
- Structural based (HCI) [16]: +VE
- AC50 ([17]; read-out: ATP endpoint AC50): 29.4 µM
- minimal effective concentration ([17]; read-out: ATP endpoint MEC): 16.4 µM
- AC50 ([17]; read-out: HCS endpoint AC50): 38.9 µM
- minimal effective concentration ([17]; read-out: HCS endpoint MEC): 20.1 µM
- DILI prediction hLiMTs (HCS-MEC) [17, 24]: +VE (MEC < 25 × Cmax.tot cut-off)
- hLiMTs <25x Avg Cmax ATP ([17]; hLiMTs, ATP endpoint, cut-off <25x Avg Cmax): +ve
- hLiMTs <100x Avg Cmaxu ATP ([17]; hLiMTs, ATP endpoint, cut-off <100x Avg Cmaxu): +ve (<100x Avg Cmaxu)
- hLiMTs <25x Avg Cmax HCS ([17]; hLiMTs, HCS endpoints, cut-off <25x Avg Cmax): +ve
- hLiMTs <100x Avg Cmaxu HCS ([17]; hLiMTs, HCS endpoints, cut-off <100x Avg Cmaxu): +ve (<100x Avg Cmaxu)
- hLiMTs <25x Avg Cmax All ([17]; hLiMTs, all endpoints (ATP and HCS), cut-off <25x Avg Cmax): +ve
- hLiMTs Cmax max All ([17]; hLiMTs, all endpoints, Cmax max used): +ve
- hLiMTs Cmax min All ([17]; hLiMTs, all endpoints, Cmax min used): +ve
- hLiMTs <10 uM All ([17]; hLiMTs, all endpoints, cut-off <10 uM): -ve
- hLiMTs <100x Avg Cmaxu All ([17]; hLiMTs, all endpoints, cut-off <100x Avg Cmaxu): +ve (<100x Avg Cmaxu)
- Cmax [18]: 5.02 µM
- DILI +VE (5-8), DILI -VE (-4) [19]: +VE
- DILI severity category (Chen et al. [2016]) [19]: Most
- Human plasma Cmax,u [20]: 1.205 µM
- Assigned DILI category ([5]; in vivo): 3
- In vivo DILI ([5]; in vivo): +VE
- fu [21]: 0.240
- hLiMTs ATP <100uM [22]: -VE
- hLiMTs/100uM, Proctor (2017) [22]: -VE
- DILI in vitro assay prediction, Vorrink (2018) [12]: identified
